Measurements reported in EP2545050B1, “COMPOUNDS FOR THE TREATMENT OF HEPATITIS C” (Bristol-Myers Squibb Company, priority 2010, dated 2011).

system: HCV; test: not given; settings: extended dosing of the combination regimens; development suspended; cited from earlier work

For CNC(=O)c1c(-c2ccc(F)cc2)oc2cc(N(CCO)S(C)(=O)=O)c(C3CC3)cc12 [HCV-796], the hepatic toxicity is listed as “hepatic toxicity observed”.

system: HCV replicon; test: HCV replicon assay (FRET or luciferase reporter); type: cell-based; settings: Hepatitis C virus; HCV replicon cells; Table 1
Description: FRET Assay Preparation. To perform the HCV FRET screening assay, 96-well cell culture plates were used. The FRET peptide (Anaspec, Inc.) (Taliani et al., Anal. Biochem. 1996, 240, 60-67) contains a fluorescence donor, EDANS, near one end of the peptide and an acceptor, DABCYL, near the other end. The fluorescence of the peptide is quenched by […] resonance energy transfer (RET) between the donor and the acceptor, but as the NS3 protease cleaves the peptide the products are released from RET quenching and the fluorescence of the donor becomes apparent. The assay reagent was made as follows: 5X cell Luciferase cell culture lysis reagent from Promega (#E153A) diluted to 1X with dH2O, NaCl added to 150 mM final, the FRET peptide diluted to 20 µM final from a 2 mM stock.
To prepare plates, HCV replicon cells, with or without a Renilla luciferase reporter gene, were trypsinized and placed into each well of a 96-well plate with titrated test compounds added in columns 3 through 12; columns 1 and 2 contained a control compound (HCV protease inhibitor), and the bottom row contained cells without compound. The plates were then placed in a CO2 incubator at 37 °C.
Assays. Subsequent to addition of the test compounds described above (FRET Assay Preparation), at various times the plate was removed and Alamar blue solution (Trek Diagnostics, #00-100) was added per well as a measure of cellular toxicity. After reading in a Cytoflour 4000 instrument (PE Biosystems), plates were rinsed with PBS and then used for FRET assay by the addition of 30 ul of the FRET peptide assay reagent described above (FRET Assay Preparation) per well. The plate was then placed into the Cytoflour 4000 instrument which had been set to 340 excite/490 emission, automatic mode for 20 cycles and the plate read in a kinetic mode. Typically, the signal to noise using an endpoint analysis after the reads was at least three-fold. Alternatively, after Alamar blue reading, plates were rinsed with PBS, 50 ul of DMEM (high glucose) without phenol red was added and plates were then used for luciferase assay using the Promega Dual-Glo Luciferase Assay System.
Compound analysis was determined by quantification of the relative HCV replicon inhibition and the relative cytotoxicity values. To calculate cytoxicity values, the average Alamar Blue fluorescence signals from the control wells were set as 100% non-toxic. The individual signals in each of the compound test wells were then divided by the average control signal and multiplied by 100% to determine […]. To calculate the HCV replicon inhibition values, an average background value was obtained from the two wells containing the highest amount of HCV protease inhibitor at the end of the assay period. These numbers were similar to those obtained from naive Huh-7 cells.
The background numbers were then subtracted from the average signal obtained from the control wells and this number was used as 100% activity. The individual signals in each of the compound test wells were then divided by the averaged control values after background subtraction and multiplied by 100% to determine percent activity. EC50 values for a protease inhibitor titration were calculated as the concentration which caused a 50% reduction in FRET or luciferase activity. The two numbers generated for the compound plate, percent cytoxicity and percent activity were used to determine compounds of interest for further analysis.
HCV Replicon Luciferase Reporter Assay
The HCV replicon luciferase assay was developed to monitor the inhibitory effects of compounds described in the disclosure on HCV viral replication. Utilization of a replicon luciferase reporter assay was first described by Krieger et al (Krieger N, Lohmann V, and Bartenschlager R, J. Virol. 75(10):4614-4624 (2001)). […]

First: CNC(=O)c1c(-c2ccc(F)cc2)nn2ccc(-c3cc(C(=O)NC4(c5cnccn5)CC4)c(OC)cc3C)c(F)c12 [4-fluoro-2-(4-fluorophenyl)-5-(4-methoxy-2-methyl-5-(1-(pyrazin-2-yl)cyclopropylcarbamoyl)phenyl)-N-methylpyrazolo[1,5-a]pyridine-3-carboxamide]
Second: CNC(=O)c1c(-c2ccc(F)cc2)nn2ccc(-c3cc(C(=O)NC4(c5ccnnc5)CC4)c(OC)cc3C)c(F)c12 [4-fluoro-2-(4-fluorophenyl)-5-(4-methoxy-2-methyl-5-(1-(pyridazin-4-yl)cyclopropylcarbamoyl)phenyl)-N-methylpyrazolo[1,5-a]pyridine-3-carboxamide]
The EC50 of the first is lower: 0.002 to 0.25 µM for the first, 1 to 10 µM for the second. The first is the more potent here.

CNC(=O)c1c(-c2ccc(F)cc2)nn2ccc(-c3cc(C(=O)NC4(c5cc(F)ccn5)CC4)c(OC)nc3C)c(F)c12 [4-fluoro-2-(4-fluorophenyl)-5-(5-(1-(4-fluoropyridin-2-yl)cyclopropylcarbamoyl)-6-methoxy-2-methylpyridin-3-yl)-N-methylpyrazolo[1,5-a]pyridine-3-carboxamide] and CNC(=O)c1c(-c2ccc(F)cc2)nn2ccc(-c3cc(C(=O)NC4(c5ccccn5)CC4)c(OC)nc3C)c(F)c12 [4-fluoro-2-(4-fluorophenyl)-5-(6-methoxy-2-methyl-5-(1-(pyridin-2-yl)cyclopropylcarbamoyl)pyridin-3-yl)-N-methylpyrazolo[1,5-a]pyridine-3-carboxamide] fall in the same range of EC50: 0.002 to 0.25 µM for the first, 0.002 to 0.25 µM for the second.

Compared with CNC(=O)c1c(-c2ccc(F)cc2)nn2ccc(-c3cc(C(=O)NC4(c5nccc(O)n5)CC4)c(OC)cc3C)c(F)c12 [4-fluoro-2-(4-fluorophenyl)-5-(5-(1-(4-hydroxypyrimidin-2-yl)cyclopropylcarbamoyl)-4-methoxy-2-methylphenyl)-N-methylpyrazolo[1,5-a]pyridine-3-carboxamide], CNC(=O)c1c(-c2ccc(F)cc2)nn2ccc(-c3cc(C(=O)NC4(c5ccccc5)CC4)c(OC)nc3C)c(F)c12 [4-fluoro-2-(4-fluorophenyl)-5-(6-methoxy-2-methyl-5-(1-phenylcyclopropylcarbamoyl)pyridin-3-yl)-N-methylpyrazolo[1,5-a]pyridine-3-carboxamide] is lower in EC50: 1 to 10 µM for the first, 0.002 to 0.25 µM for the second.

CNC(=O)c1c(-c2ccc(F)cc2)nn2ccc(-c3cc(C(=O)NC4(c5ccccn5)CC4)c(OCC4CCOCC4)nc3C)c(F)c12 [4-fluoro-2-(4-fluorophenyl)-N-methyl-5-(2-methyl-5-(1-(pyridin-2-yl)cyclopropylcarbamoyl)-6-((tetrahydro-2H-pyran-4-yl)methoxy)pyridin-3-yl)pyrazolo[1,5-a]pyridine-3-carboxamide] and CNC(=O)c1c(-c2ccc(F)cc2)nn2ccc(-c3cc(C(=O)NC4(c5ncccn5)CC4)c(OCC4CCOCC4)nc3C)c(F)c12 [4-fluoro-2-(4-fluorophenyl)-N-methyl-5-(2-methyl-5-(1-(pyrimidin-2-yl)cyclopropylcarbamoyl)-6-((tetrahydro-2H-pyran-4-yl)methoxy)pyridin-3-yl)pyrazolo[1,5-a]pyridine-3-carboxamide] fall in the same range of EC50: 0.002 to 0.25 µM for the first, 0.002 to 0.25 µM for the second.

CNC(=O)c1c(-c2ccc(F)cc2)nn2ccc(-c3cc(C(=O)NC4(c5ccccn5)CC4)c(OC(F)F)nc3C)c(F)c12 [5-(6-(difluoromethoxy)-2-methyl-5-(1-(pyridin-2-yl)cyclopropylcarbamoyl)pyridin-3-yl)-4-fluoro-2-(4-fluorophenyl)-N-methylpyrazolo[1,5-a]pyridine-3-carboxamide] and CNC(=O)c1c(-c2ccc(F)cc2)nn2ccc(-c3cc(C(=O)NC4(c5ccccc5)CC4)c(OC(F)F)nc3C)c(F)c12 [5-(6-(difluoromethoxy)-2-methyl-5-(1-phenylcyclopropylcarbamoyl)pyridin-3-yl)-4-fluoro-2-(4-fluorophenyl)-N-methylpyrazolo[1,5-a]pyridine-3-carboxamide] fall in the same range of EC50: 0.002 to 0.25 µM for the first, 0.002 to 0.25 µM for the second.
